In patent publication US4435426A, “Ethers of phenol active on the cardiovascular system, process for preparing same and use thereof in drugs” (Societe Anonyme dite: Sanofi, priority 1981, dated 1984):

How the values were obtained:
[1] = molecular target: T1, adrenergic β receptors (β2) (Canis lupus familiaris, UniProt P54833); experiment: Antagonism of the effects of isoprenaline: hypertension (so in the source) (β2), anaesthetized dog, intravenous; format: in vivo; conditions: 50% inhibition of hypertension (β2) induced by intravenous isoprenaline, i.v., read-out: ID 50 isoprenaline β2
T1 construct: from tissue; host or cells: whole anaesthetized dog (in vivo, systemic arterial pressure)
T1 sequence (P54833 whole entry): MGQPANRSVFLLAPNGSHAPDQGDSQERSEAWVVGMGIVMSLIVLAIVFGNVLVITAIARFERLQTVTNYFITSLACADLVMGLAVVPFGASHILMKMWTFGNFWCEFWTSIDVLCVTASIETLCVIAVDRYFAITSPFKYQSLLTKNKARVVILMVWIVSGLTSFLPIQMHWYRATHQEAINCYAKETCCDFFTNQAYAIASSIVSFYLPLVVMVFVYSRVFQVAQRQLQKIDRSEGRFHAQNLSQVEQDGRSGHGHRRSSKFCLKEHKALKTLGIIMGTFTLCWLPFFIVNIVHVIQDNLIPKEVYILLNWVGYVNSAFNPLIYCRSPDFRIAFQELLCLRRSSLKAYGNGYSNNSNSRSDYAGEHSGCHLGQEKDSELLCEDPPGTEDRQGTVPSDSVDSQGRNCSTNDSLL
Experimental: (§1) The dog is anaesthetized with sodium pentobarbital administered intravenously at the dose of 30 mg/kg. A canula placed in the short saphenous vein allows the products to be injected intravenously. The animal is intubed and breathes spontaneously.
(§2) The cardiac frequency and the systemic arterial pressure are studied and the variations of these parameters are observed after intravenous injection of the product to be tested, each product being injected at increasing doses.
(§3) The antagonism of the products vis-a-vis the β stimulant cardiovascular effects of isoprenaline on the adrenergic β receptors was sought. The results are shown in Table below and expressed in ID 50: this is the dose expressed in mg/kg which provokes 50% inhibition of tachycardia (β1) and of hypertension (β2) induced by the isoprenaline administered by intravenous route.

[2] = molecular target: T2, adrenergic β receptors (β1) (Canis lupus familiaris, UniProt P79148); experiment: Antagonism of the effects of isoprenaline: tachycardia (β1), anaesthetized dog, intravenous; format: in vivo; conditions: 50% inhibition of tachycardia (β1) induced by intravenous isoprenaline, i.v., read-out: ID 50 isoprenaline β1
T2 construct: The dog is anaesthetized with sodium pentobarbital; from tissue; host or cells: whole anaesthetized dog (in vivo, heart rate)
T2 sequence (P79148 whole entry): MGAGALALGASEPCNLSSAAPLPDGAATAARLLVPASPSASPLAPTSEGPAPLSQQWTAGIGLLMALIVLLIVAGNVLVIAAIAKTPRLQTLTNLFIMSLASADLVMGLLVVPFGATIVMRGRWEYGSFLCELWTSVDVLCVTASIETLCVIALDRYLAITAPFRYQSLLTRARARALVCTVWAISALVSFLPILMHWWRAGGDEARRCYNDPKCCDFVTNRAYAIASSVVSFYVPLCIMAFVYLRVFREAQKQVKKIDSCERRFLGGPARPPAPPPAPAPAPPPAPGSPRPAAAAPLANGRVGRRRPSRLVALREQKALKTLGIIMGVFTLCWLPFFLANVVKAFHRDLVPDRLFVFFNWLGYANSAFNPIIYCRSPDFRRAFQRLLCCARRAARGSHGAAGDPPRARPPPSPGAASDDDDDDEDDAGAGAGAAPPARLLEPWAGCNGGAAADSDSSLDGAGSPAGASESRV
Experimental: as §1, §2, §3

ED50 [1] [mg/kg] | ED50 [2] [mg/kg] | SMILES
0.03 | – | CC(C)(C)NCC(O)COc1cccc2c1C(=O)CCC2 (centres unmarked) [compound 7285, 1-(8-oxo 5,6,7,8-tetrahydro 1-naphthyloxy) 2-hydroxy 3-tertiobutylamino propane]
0.01 | 0.1 | Cc1ccc(OCC(O)CNC(C)(C)C)c2c1CCCC2=O (centres unmarked) [compound 7706]
0.03 | 0.1 | C#CC(C)(C)NCC(O)COc1ccc(C)c2c1C(=O)CCC2 (centres unmarked) [compound 7760]
